Measurements reported in patent publication US20040234978A1, “Novel potential-dependent cation channel protein” (priority 2001, published 2004).

Test system: CAE9577
Experiment: Na current measurement in CAE9577 expressed oocytes
Type: cell-based, human

In the case of NC1=N[C@H](O)[C@H]2[C@H]3O[C@]4(O)O[C@@H]([C@@H](O)[C@@]2(N1)[C@@H]4O)[C@]3(O)CO [TTX, Tetrodotoxin], the “inhibition of the inward Na current” value is reported as “partially inhibited”.
